Data taken from US10774071B2, “PD-1/PD-L1 inhibitors” (Gilead Sciences, Inc., priority 2018, dated 2020).
Like-named read-outs stand apart in the source and are kept apart here.

Columns and labels:
PD-L1 = PD-L1 (Homo sapiens (Human), UniProt Q9NZQ7); assay: PD-L1/PD-L1 dimerization biochemical protein-protein interaction assay (ALPHA); format: binding; settings: read-out: AC50 PDL1 Dimer 1 nM
PD-1/PD-L1 = PD-1/PD-L1 (Homo sapiens (Human), UniProt Q9NZQ7); assay: PD-1/PD-L1 biochemical protein-protein interaction assay (ALPHA); format: binding; settings: read-out: IC50 PD-L1-PD1
Sequence of PD-1/PD-L1 (Q9NZQ7 19-238): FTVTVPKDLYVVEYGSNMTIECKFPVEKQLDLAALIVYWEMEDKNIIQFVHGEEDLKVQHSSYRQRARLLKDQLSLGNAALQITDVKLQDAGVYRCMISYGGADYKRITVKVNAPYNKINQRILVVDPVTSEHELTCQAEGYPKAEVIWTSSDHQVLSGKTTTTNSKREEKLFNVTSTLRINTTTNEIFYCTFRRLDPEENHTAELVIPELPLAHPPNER

[1] = 0.5 nM His tagged PD-L1 and 0.5 nM FLAG tagged PD-L1, Table 4B
[2] = 0.3 nM His tagged PD-L1, 2.5 nM biotinylated Fc-PD-1, Table 3B
[3] = 0.5 nM His tagged PD-L1 and 0.5 nM FLAG tagged PD-L1, Table 4A
[4] = 0.3 nM His tagged PD-L1, 2.5 nM biotinylated Fc-PD-1, readings of 0.064 nM are equal to or less than 0.064 nM

Sequence of PD-L1 (Q9NZQ7 19-238): as above
Sequence of PD-L1 (Q9NZQ7 19-238): as above

Row | Structure (SMILES) | AC50 (PD-L1; [1]) | IC50 (PD-1/PD-L1; [2]) | AC50 (PD-L1; [3]) | IC50 (PD-1/PD-L1; [4])
1 | COc1nc(-c2cccc(-c3cccc4c3CC[C@@H]4Oc3nc(OC)c(CN4CC[C@@H](C(=O)O)C4)nc3Br)c2Cl)cnc1CNC[C@@H]1CCC(=O)N1 [B-37] | 28 nM | 0.064 nM | – | –
2 | COc1nc(-c2cccc(-c3cccc4c3CC[C@@H]4Oc3nc(OC)c(CN4CC(C(=O)O)C5(CCC5)C4)cc3Cl)c2Cl)ccc1CNC[C@@H]1CCC(=O)N1 (some centres unmarked) [B-71] | 35.7 nM | 0.064 nM | – | –
3 | COc1cc(O[C@H]2CCc3c(-c4cccc(-c5ccc(CNC[C@@H]6CCC(=O)N6)c(OC)n5)c4Cl)cccc32)c(C(F)(F)F)cc1CNC1(C(=O)O)CC1 [B-220] | 2.04 nM | 0.064 nM | – | –
4 | COc1nc(-c2cccc(-c3cccc4c3CC[C@@H]4Oc3nc(OC)c(CNC(C)(C)C(=O)O)cc3C(F)(F)F)c2Cl)ccc1CN[C@H]1C[C@](C)(O)C1 [B-1] | 1.11 nM | 0.064 nM | – | –
5 | COc1nc(-c2cccc(-c3cccc4c3CC[C@@H]4Oc3nc(OC)c(CN4CCCC(C(=O)O)CC4)cc3Cl)c2Cl)ccc1CNC[C@@H]1CCC(=O)N1 (some centres unmarked) [B-177] | 17.9 nM | 0.064 nM | – | –
6 | COc1cc(N[C@H]2CCc3c(-c4cccc(-c5ccc(CNC[C@@H]6CCC(=O)N6)c(OC)n5)c4Cl)cccc32)c(Cl)cc1CN1CC2(C(=O)O)CCC1CC2 [A-13] | – | – | 48.8 nM | 0.065 nM
7 | COc1nc(-c2cccc(-c3cccc4c3CC[C@@H]4Oc3nc(OC)c(CN4CC5CCC4C(C(=O)O)C5)cc3Cl)c2Cl)ccc1CNC[C@@H]1CCC(=O)N1 (some centres unmarked) [B-98] | 54.3 nM | 0.111 nM | – | –
8 | COc1nc(-c2cccc(-c3cccc4c3CC[C@@H]4Oc3nc(OC)c(CN4CC5CC4(C(=O)O)C5)cc3C(F)(F)F)c2Cl)ccc1CNC[C@@H]1CCC(=O)N1 [B-145] | 5.12 nM | 0.064 nM | – | –
9 | COc1nc(-c2cccc(-c3cccc4c3CC[C@@H]4Oc3nc(OC)c(CN4CC5(C(=O)O)CCC4CC5)cc3Cl)c2C)ccc1CNC[C@@H]1CCC(=O)N1 [B-77] | 60.4 nM | 0.064 nM | – | –
10 | COc1cc(O[C@H]2CCc3c(-c4cccc(-c5ccc(CNC[C@@H]6CCC(=O)N6)c(OC)n5)c4Cl)cccc32)c(C(F)(F)F)cc1CN1CC2CCC1C(C(=O)O)C2 (some centres unmarked) [B-224] | 10.6 nM | 0.064 nM | – | –
11 | CNC(=O)CCNCc1cc(Cl)c(O[C@H]2CCc3c(-c4cccc(-c5ccc(CNC[C@@H]6CCC(=O)N6)c(OC)n5)c4Cl)cccc32)nc1OC [B-90] | 18.7 nM | 0.111 nM | – | –
12 | COc1nc(-c2cccc(-c3cccc4c3CC[C@@H]4Nc3nc(OC)c(CN[C@@H](C)C(=O)N(C)C)nc3C(F)(F)F)c2Cl)ccc1CNC[C@@H]1CCC(=O)N1 [A-97] | – | – | 6.28 nM | ≤ 0.064 nM
13 | COc1nc(-c2cccc(-c3cccc4c3CC[C@@H]4Oc3nc(OC)c(CNC(C)(C)CC(=O)O)cc3C(F)(F)F)c2Cl)ccc1CNC[C@@H]1CCC(=O)N1 [B-196] | 6.31 nM | 0.064 nM | – | –
14 | COc1nc(-c2cccc(-c3cccc4c3SC[C@@H]4Oc3nc(OC)c(CNC[C@@H]4CCC(=O)N4)cc3Cl)c2Cl)ccc1CNC[C@@H]1CCC(=O)N1 [B-103] | 58.5 nM | 0.234 nM | – | –
15 | COc1nc(-c2cccc(-c3cccc4c3CC[C@@H]4Oc3nc(OC)c(CNC4(C(=O)O)CCC4)cc3C(F)(F)F)c2Cl)ccc1CNC[C@@H]1CCC(=O)N1 [B-229] | 3.14 nM | 0.064 nM | – | –
16 | COc1nc(-c2cccc(-c3cccc4c3CC[C@@H]4Nc3nc(OC)c(CN[C@@H](C)C(=O)O)nc3C(F)(F)F)c2Cl)ccc1CNC[C@H]1C[C@H](O)C1 [A-48] | – | – | 13.5 nM | ≤ 0.064 nM
17 | COc1nc(-c2cccc(-c3cccc4c3CC[C@@H]4Oc3nc(OC)c(CN4CCC(C(=O)N=S(C)(N)=O)CC4)cc3Cl)c2Cl)ccc1CNC[C@@H]1CCC(=O)N1 (some centres unmarked) [B-158] | 26.9 nM | 0.064 nM | – | –
18 | COc1nc(-c2cccc(-c3cccc4c3CC[C@@H]4Nc3nc(OC)c(CN[C@@H](C)C(=O)O)cc3C(F)(F)F)c2Cl)ccc1CNC[C@@H]1CCC(=O)N1 [A-64] | – | – | 8.04 nM | ≤ 0.064 nM
19 | COc1nc(-c2cccc(-c3cccc4c3CC[C@@H]4Oc3nc(OC)c(CNC(C)(C)C(=O)O)cc3C(F)(F)F)c2Cl)ccc1CNC[C@@H]1CCC(=O)N1 [B-12] | 1.12 nM | 0.064 nM | – | –
20 | COc1nc(-c2cccc(-c3cccc4c3CC[C@@H]4Nc3nc(OC)c(CN[C@@H](C)C(=O)O)cc3C(F)(F)F)c2Cl)ccc1CNC[C@H]1C[C@](C)(O)C1 [A-83] | – | – | 23.6 nM | ≤ 0.064 nM

Row | Structure (SMILES) | AC50 (PD-L1; [1]) | IC50 (PD-1/PD-L1; [2]) | AC50 (PD-L1; [3]) | IC50 (PD-1/PD-L1; [4])
21 | COc1nc(-c2cccc(-c3cccc4c3CC[C@@H]4Oc3nc(OC)c(CN4CC[C@H](C)[C@H]4C(=O)O)cc3C(F)(F)F)c2Cl)ccc1CNC[C@@H]1CCC(=O)N1 [B-7] | 4.04 nM | 0.064 nM | – | –
22 | COc1nc(-c2cccc(-c3cccc4c3CC[C@@H]4Oc3nc(OCc4cncc(Cl)c4)c(CNC4(C(=O)O)CC4)cc3Cl)c2Cl)ccc1CNC[C@@H]1CCC(=O)N1 [B-32] | 12.9 nM | 0.095 nM | – | –
23 | COc1nc(-c2cccc(-c3cccc4c3CC[C@@H]4Nc3nc(OC)c(CN[C@@H](C)C(=O)O)nc3C(F)(F)F)c2Cl)ccc1CN[C@H]1C[C@](C)(O)C1 [A-50] | – | – | 17.6 nM | ≤ 0.064 nM
24 | COc1nc(-c2cccc(-c3cccc4c3CC[C@@H]4Oc3nc(OC)c(CN4CC(C(=O)O)C4)nc3Cl)c2Cl)ccc1CNC[C@@H]1CCC(=O)N1 [B-152] | 12.7 nM | 0.064 nM | – | –
25 | COc1cc(-c2cccc(-c3cccc4c3CC[C@@H]4Oc3nc(OC)c(CN(C)CC(=O)O)cc3C(F)(F)F)c2Cl)cc(F)c1CNC[C@@H]1CCC(=O)N1 [B-187] | 2.86 nM | 0.064 nM | – | –
26 | COc1nc(-c2cccc(-c3cccc4c3CC[C@@H]4Oc3nc(OC)c(CN4CC[C@@H](C(=O)N=S(C)(N)=O)C4)cc3Cl)c2Cl)ccc1CNC[C@@H]1CCC(=O)N1 (some centres unmarked) [B-164] | 66.9 nM | 0.27 nM | – | –
27 | COc1cc(-c2cccc(-c3cccc4c3CC[C@@H]4Oc3nc(OC)c(CNC4(C(=O)O)CC4)cc3Cl)c2Cl)cc(F)c1CNC[C@@H]1CCC(=O)N1 [B-128] | 13.5 nM | 0.064 nM | – | –
28 | COc1nc(-c2cccc(-c3cccc4c3CC[C@@H]4Oc3nc(OCc4cncc(Cl)c4)c(CN4CC5(C(=O)O)CCC4CC5)cc3Cl)c2Cl)ccc1CNC[C@@H]1CCC(=O)N1 [B-48] | 7.12 nM | 0.064 nM | – | –
29 | COc1cc(O[C@H]2CCc3c(-c4cccc(-c5ccc(CNC[C@@H]6CCC(=O)N6)c(OC)n5)c4Cl)cccc32)c(C(F)(F)F)cc1CNC(C)(C)C(=O)O [B-219] | 2.56 nM | 0.064 nM | – | –
30 | COc1nc(-c2cccc(-c3cccc4c3CC[C@@H]4Oc3nc(OC)c(CN4CC[C@@H](C(=O)O)C4)cc3Cl)c2Cl)ccc1CN1CC(C)(O)C1 [B-85] | 50.3 nM | 0.064 nM | – | –
31 | COc1nc(-c2cccc(-c3cccc4c3CC[C@@H]4Oc3nc(OC)c(CNC4(C(=O)O)CC4)cc3C(F)(F)F)c2Cl)ccc1CN1CC2(CCC(=O)N2)C1 [B-170] | 15.2 nM | 0.064 nM | – | –
32 | COc1nc(-c2cccc(-c3cccc4c3CC[C@@H]4Nc3nc(OC)c(CNC(C)(C)C(=O)O)nc3C(F)(F)F)c2Cl)ccc1CN[C@H]1C[C@](C)(O)C1 [A-95] | – | – | 21.2 nM | ≤ 0.064 nM
33 | COc1nc(-c2cccc(-c3cccc4c3CC[C@@H]4Oc3nc(OC4CC4)c(CNC4(C(=O)O)CC4)cc3Cl)c2Cl)ccc1CNC[C@@H]1CCC(=O)N1 [B-201] | 24.4 nM | 0.064 nM | – | –
34 | CNC(=O)CNCc1nc(C(F)(F)F)c(N[C@H]2CCc3c(-c4cccc(-c5ccc(CNC[C@@H]6CCC(=O)N6)c(OC)n5)c4Cl)cccc32)nc1OC [A-88] | – | – | 60.4 nM | 0.202 nM
35 | COc1nc(-c2cccc(-c3cccc4c3CC[C@@H]4Nc3nc(OC)c(CNCC(=O)O)nc3C(F)(F)F)c2Cl)ccc1CN[C@@H]1CCCC[C@@H]1O [A-109] | – | – | 8.98 nM | ≤ 0.064 nM
36 | COc1nc(-c2cccc(-c3cccc4c3CC[C@@H]4Oc3nc(OC)c(CN4CC(C(=O)O)C4)cc3C(F)(F)F)c2Cl)ccc1CNC[C@@H]1CCC(=O)N1 [B-63] | 7.82 nM | 0.064 nM | – | –
37 | COc1nc(-c2cccc(-c3cccc4c3CC[C@@H]4Oc3nc(OC)c(CNCC(N)=O)cc3C(F)(F)F)c2Cl)ccc1CNC[C@@H]1CCC(=O)N1 [B-266] | 28.5 nM | 0.251 nM | – | –
38 | COc1nc(-c2cccc(-c3cccc4c3CC[C@@H]4Oc3nc(OC)c(CN4CC5CCC4(C(=O)O)CC5)cc3Cl)c2Cl)ccc1CNC[C@@H]1CCC(=O)N1 [B-231] | 12 nM | 0.064 nM | – | –
39 | COc1nc(-c2cccc(-c3cccc4c3CC[C@@H]4Nc3nc(OC)c(CN4C5CCC4(C(=O)O)CC5)cc3C(F)(F)F)c2Cl)ccc1CN1CC(C)(O)C1 [A-60] | – | – | 13.9 nM | ≤ 0.064 nM
40 | COc1cc(-c2cccc(-c3cccc4c3CC[C@@H]4Oc3nc(OC)c(CNC(C)(C)CC(=O)O)cc3C(F)(F)F)c2Cl)cc(F)c1CNC[C@@H]1CCC(=O)N1 [B-192] | 6.8 nM | 0.064 nM | – | –
